For 16 molecules, inhibit prolyl endopeptidase and IC50 results are on record in patent publication US5401760A, “Heterocyclic compounds” (Ono Pharmaceutical Co., Ltd., priority 1988, dated 1995).

The structures appear in SMILES notation. Where a SMILES comes first, the peptide text is derived from it.

T1 sequence (Q9XTA2 whole entry): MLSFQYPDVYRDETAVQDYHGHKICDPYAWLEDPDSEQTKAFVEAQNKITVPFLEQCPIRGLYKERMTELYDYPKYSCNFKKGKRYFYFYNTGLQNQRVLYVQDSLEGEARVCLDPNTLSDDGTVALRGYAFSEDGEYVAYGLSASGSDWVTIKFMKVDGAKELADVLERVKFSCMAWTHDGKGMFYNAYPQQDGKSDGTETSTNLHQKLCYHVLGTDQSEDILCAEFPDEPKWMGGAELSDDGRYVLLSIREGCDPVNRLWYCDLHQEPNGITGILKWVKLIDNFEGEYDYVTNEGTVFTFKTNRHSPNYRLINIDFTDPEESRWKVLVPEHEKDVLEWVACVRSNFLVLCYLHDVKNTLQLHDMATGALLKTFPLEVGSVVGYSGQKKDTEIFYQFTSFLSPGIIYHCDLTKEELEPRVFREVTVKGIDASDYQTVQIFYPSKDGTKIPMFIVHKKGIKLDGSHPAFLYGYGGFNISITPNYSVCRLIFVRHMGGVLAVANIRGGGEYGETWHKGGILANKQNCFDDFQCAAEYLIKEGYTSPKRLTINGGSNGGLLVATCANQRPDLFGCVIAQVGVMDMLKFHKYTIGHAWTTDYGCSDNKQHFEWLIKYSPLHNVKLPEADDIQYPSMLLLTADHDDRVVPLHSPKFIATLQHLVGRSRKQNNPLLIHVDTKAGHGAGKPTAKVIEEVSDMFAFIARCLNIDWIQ

For the first test, the system named is prolyl endopeptidase.
Assay: not given
The settings on record: literature, J. Neurochem., 41, 69 (1983); cited from earlier work.
With `O=C(NCC(=O)N1CCC[C@H]1C(=O)CCl)OCc1ccccc1` [N-benzyloxycarbonyl-glycyl-L-prolyl-chloromethane] (HELM PEPTIDE1{[O=C(OCc1ccccc1)[*:2]].G.P.[ClC[*:1]]}$$$$V2.0), the inhibit prolyl endopeptidase entry is reported as “strongly inhibit”.

A further test has as its target T1, prolyl endopeptidase (Bos taurus, UniProt Q9XTA2).
T1 construct: prolyl endopeptidase which was purified from bovine brain; from tissue; host or cells: bovine brain (purified enzyme)
Description: Prolyl endopeptidase inhibitory activity in vitro. As to conditions: enzyme purified from bovine brain, pH 7.5, 37° C., substrate N-benzyloxycarbonyl-glycyl-prolyl-p-nitroanilide, read-out: Concentration for 50% inhibition IC50. It counts as biochemical. As to the method:
For example, in a standard laboratory test, results in the following were given.
Prolyl endopeptidase inhibitory activity in vitro
Inhibitory activity of prolyl endopeptidase in vitro was measured by the following test system.
A mixed solution of 20 mM tris-HCl buffer (pH 7.5; 935 μl; containing 10 mM EDTA and 10 mM mercaptoethanol), a solution of a compound of the present invention in DMSO (10 μl) and a solution of prolyl endopeptidase which was purified from bovine brain (0.13 unit ml; prepared by the method described in J. Biochem., 94, 1179 (1983) ) in tris-HCl buffer (15 μl) was preincubated for 15 mins at 37° C.
To the solution, 5 mM of N-benzyloxycarbonyl-glycyl-prolyl-p-nitroanilide (40 μl) in a mixture of 40% dioxane-60% water was added. The solution was incubated for 1 min at the same temperature.
Optical absorption (a1) at 405 nm of the solution, and optical absorption (a2) at 405 nm of the solution after more 30 mins' incubation at 37° C. were measured.
Optical absorptions (b1 and b2) of the solutions using DMSO instead of the solution of the compound of the present invention were also measured.
Inhibitory ratio was calculated by the following expression and IC50 (required concentration for 50% inhibition) was obtained (See Protein, Nucleic acid and Enzyme 25(6), 513, 1980.). [formula] Toxicity
Turning to `CN(Cc1ccccc1)C(=O)CCC(=O)N1CCC[C@H]1C(=O)C(F)(F)F` [Example 9, 1-[(2S)-1-[3-(N-benzyl-N-methylcarbamoyl)propanoyl]pyrrolidin-2-yl]-2,2,2-trifluoroethan-1-one], the IC50 worked out at 23 nM.

For `CCOC(=O)C(=O)[C@@H]1CCCN1C(=O)CCC(=O)N(Cc1ccc(C(F)(F)F)cc1)c1ccccc1` [2 (d), 2-[(2S)-1-[3-[N-(4-trifluoromethylphenylmethyl)-N-phenylcarbamoyl]propanoyl]pyrrolidin-2-yl]-2-oxoacetic acid ethyl], the IC50 amounted to 0.85 nM.

`CCC(O)[C@@H]1CSCN1C(=O)C1CCCCN1C(=O)CCc1ccccc1` (mixture of isomers) [15 (a), (1RS)-1-[(4R)-3-[1-(3-phenylpropanoyl)piperidin-2-ylcarbonyl]thiazolidin-4-yl]propan-1-ol]: the IC50 was found to be 120 nM.

Take `CCOC(=O)C(=O)[C@@H]1CCCN1C(=O)CCC(=O)N(C)Cc1ccccc1` [Example 2, 2-[(2S)-1-[3-(N-benzyl-N-methylcarbamoyl)propanoyl]pyrrolidin-2-yl]-2-oxoacetic acid ethyl ester]: the IC50 is 3 nM.

Consider `CCOC(=O)C(=O)[C@@H]1CCCN1C(=O)C(CCCCCc1ccccc1)C(C)C` (mixture of isomers) [2 (h), 2-[(2S)-1-[(2RS)-2-isopropyl-7-phenylheptanoyl]pyrrolidin-2-yl]-2-oxoacetic acid ethyl ester], for which the IC50 was determined as 17 nM.

With `CN(Cc1ccccc1)C(=O)CCC(=O)N1CCC[C@H]1C(=O)C(=O)OCc1ccccc1` [Example 7, 2-[(2S)-1-[3-(N-benzyl-N-methylcarbamoyl)propanoyl]pyrrolidin-2-yl]-2-oxoacetic acid benzyl ester], the IC50 turned out to be 1.2 nM.

As for `CN(Cc1ccccc1)C(=O)CCC(=O)N1CCC[C@H]1C(O)C(=O)OCc1ccccc1` (mixture of isomers) [Example 6, (2RS)-2-[(2S)-1-[3-(N-benzyl-N-methylcarbamoyl)propanoyl]pyrrolidin-2-yl]-2-hydroxyacetic acid benzyl ester], the IC50 was 3000 nM.

As for `CCOC(=O)C(=O)[C@@H]1CCCN1C(=O)CCC(=O)NC1c2ccccc2-c2ccccc21` [2 (b), 2-[(2S)-1-[3-[N-(9-fluorenyl)carbamoyl]propanoyl]pyrrolidin-2-yl]-2-oxoacetic acid ethyl ester], the IC50 was found to be 1.8 nM.

Turning to `CCOC(=O)C(=O)[C@@H]1CCCN1C(=O)CCC(=O)N(Cc1ccccc1)c1ccccc1` [2 (g), 2-[(2S)-1-[3-(N-benzyl-N-phenylcarbamoyl)propanoyl]pyrrolidin-2-yl]-2-oxoacetic acid ethyl ester], the IC50 was 1.7 nM.

On to `CCOC(=O)C(F)(F)C(=O)[C@@H]1CCCN1C(=O)CCC(=O)N(C)Cc1ccccc1` [Example 13, 3-[(2S)-1-[3-(N-benzyl-N-methylcarbamoyl)propanoyl]pyrrolidin-2-yl]-3-oxo-2,2-difluoropropionic acid ethyl ester], for which the IC50 was 100 nM.

For the molecule `CN(Cc1ccccc1)C(=O)CCC(=O)N1CCC[C@H]1C1OCCO1` [Example 19, 2-[(2S)-1-[3-(N-benzyl-N-methylcarbamoyl)propanoyl]pyrrolidin-2-yl]-1,3-dioxolane], the IC50 is 14000 nM.

`CCOC(=O)C(=O)[C@@H]1CCCN1C(=O)CCC(=O)NCc1ccc(Cl)cc1Cl` [2 (l), 2-[(2S)-1-[3-[N-(2,4-dichloro-phenylmethyl)carbamoyl]propanoyl]pyrrolidin-2-yl]-2-oxoacetic acid ethyl ester]: the IC50 came out at 1.8 nM.

As for `CCOC(=O)C(F)(F)C(O)[C@@H]1CCCN1C(=O)CCC(=O)N(C)Cc1ccccc1` (mixture of isomers) [Example 12, (3RS)-3-[(2S)-1-[3-(N-benzyl-N-methylcarbamoyl)propanoyl]pyrrolidin-2-yl]-3-hydroxy-2,2-difluoropropionic acid ethyl ester], the IC50 was found to be 69000 nM.

In the case of `CCC(O)[C@@H]1CCCN1C(=O)CCC(=O)N(C)Cc1ccccc1` (mixture of isomers) [Example 15, (1RS)-1-[(2S)-1-[3-(N-benzyl-N-methylcarbamoyl)propanoyl]pyrrolidin-2-yl]-propan-1-ol], the IC50 was 1500 nM.

As to `O=C(CCCc1ccccc1)N1CSC[C@H]1C(=O)N1CSC[C@H]1C(O)c1ccccc1` (stereo partly drawn) [17 (a), (1RS)-1-phenyl-1-[(4R)-3-[(4R)-3-(4-phenylbutanoly)thiazolidin-4-ylcarbonyl]thiazolidin-4-yl]methanol], the IC50 amounted to 180 nM.
